In patent publication US8263772B2, “MCH receptor antagonists” (Eli Lilly and Company, priority 2006, dated 2012):
Where a name gives a salt, the structure may show the parent alone.

How the values were obtained:
[1] = tested on: diet-induced obese male Long-Evans rats; assay: In vivo efficacy: food intake and body weight change in diet-induced obese rats; parameters: species or system rat; conditions: 10 mg/Kg, oral gavage once a day for 3 days
Procedure: Vehicle consisted of 10% acacia and 0.15% saccharin in water.
House animals individually in a temperature regulated room (24° C.) with a reverse 12 hour light/dark cycle (dark 10:00/22:00). Make water and food (Teklad 95217, Harlan, Wis.) available ad libitum. Dose compounds orally once a day before onset of dark for 3 days. Measure daily food intake and body weight change for the 3 day period. The compound of Example 25 produces an average body weight reduction of about 6 grams@10 mg/Kg versus vehicle control.

MCHR1 = target: T1, MCHR1 (Homo sapiens, UniProt Q99705); assay: 125I-MCH competitive binding assay with clone 43 membranes (SPA); conditions: 125I-MCH binding, Ki from IC50 by Cheng-Prusoff
T1 construct: The full-length cDNA for human MCHR1 is cloned; expressed in transfected cells; host or cells: AV12 cells previously transfected with Gα15; membranes
Procedure: The full-length cDNA for human MCHR1 is cloned from a human adult brain cDNA library (Edge Biosystems, Cat. 38356) by standard polymerase chain reaction (PCR) methodology employing the following primers: sense, 5′-GCCACCATGGACCT GGAAGCCTCGCTGC-3′; anti-sense, 5′-[…]-3′. The PCR reaction is performed in a final volume of 50 μL containing 5 μL of a 10× stock solution of PCR buffer, 1 μL of 10 mM dNTP mixture (200 μM final), 2 μl of 50 mM Mg(SO4) (2 mM final), 0.5 μL of 20 μM solutions of each primer (0.2 μM final), 5 μL of template cDNA containing 0.5 ng DNA, 0.5 μL of Platinum Taq High Fidelity DNA polymerase (Gibco Life Technologies) and 36 μL of H2O. […]
In order to generate cell lines stably expressing MCHR1, subclone the insert into the Xba I and Not I sites of pcDNA(+)-3.1-neomycin (Invitrogen). […] The G418-resistant colonies are further selected for MCHR1 expression by measuring MCH-stimulated Ca^2+ transients with a fluorometric imaging plate reader (FLIPR, Molecular Devices). […]
Binding of compounds to MCHR1 is assessed in a competitive binding assay employing ^125I-MCH, compound and clone 43 membranes. […] Non-specific binding is assessed in the presence of 0.1 μM unlabeled MCH. Bound ^125I-MCH is determined by placing sealed plates in a Microbeta Trilux (Perkin Elmer Life and Analytical Sciences Inc.) and counting after a 12 h delay. […]

T1 sequence (Q99705 whole entry): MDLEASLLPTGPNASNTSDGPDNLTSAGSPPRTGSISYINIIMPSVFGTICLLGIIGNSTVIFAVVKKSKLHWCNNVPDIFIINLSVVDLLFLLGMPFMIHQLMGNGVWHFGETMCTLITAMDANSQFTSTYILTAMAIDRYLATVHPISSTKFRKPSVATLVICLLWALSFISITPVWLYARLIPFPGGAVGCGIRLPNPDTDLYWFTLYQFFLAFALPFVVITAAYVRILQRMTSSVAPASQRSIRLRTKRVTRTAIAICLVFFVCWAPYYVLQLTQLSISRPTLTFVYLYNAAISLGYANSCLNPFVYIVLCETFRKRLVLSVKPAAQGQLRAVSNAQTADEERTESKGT

Structure (SMILES): COc1cc(N2CCc3cc(-c4ccc(Cl)cc4)sc3C2=O)ccc1NC(=O)CN1CCCC1.Cl [Example 25, N-{4-[2-(4-Chloro-phenyl)-7-oxo-4,7-dihydro-5H-thieno[2,3-c]pyridin-6-yl]-2-methoxy-phenyl}-2-pyrrolidin-1-yl-acetamide hydrochloride]
- average body weight reduction versus vehicle control [1]: about 6 grams

Structure (SMILES): O=C(CN1CCCC1)Nc1ccc(-n2ccc3cc(-c4ccc(Cl)cc4)sc3c2=O)cc1 [Example 58, N-{4-[2-(4-Chloro-phenyl)-7-oxo-7H-thieno[2,3-c]pyridin-6-yl]-phenyl}-2-pyrrolidin-1-yl-acetamide, hydrochloride]
- Ki (MCHR1): ~3 nM
